Earlier results in patent US20160089381A1, “STABILITY OF PROGESTOGEN FORMULATIONS” (Novo Nordisk HealthCare AG, priority 2003, published 2016).

Tested on: endometrium
Settings: dose equivalent to 1 mg NETA

Row | Compound | Endometrium transformation dosage [mg]
1 | CC(=O)O[C@]1(C(C)=O)CC[C@H]2[C@@H]3C=C(Cl)C4=CC(=O)[C@@H]5C[C@@H]5[C@]4(C)[C@H]3CC[C@@]21C [cyproterone acetate] | 1
2 | CC(=O)O[C@]1(C(C)=O)CC[C@H]2[C@@H]3C[C@H](C)C4=CC(=O)CC[C@]4(C)[C@H]3CC[C@@]21C [medroxyprogestogen acetate] | 5
